Measurements from patent US9023855B2, “Compounds” (Chiesi Farmaceutici S.p.A., priority 2011, dated 2015).

Target: T1, human neutrophil elastase (HNE) (Homo sapiens, UniProt P08246)
T1 construct: purchased Sigma E8140
T1 sequence (P08246 30-267): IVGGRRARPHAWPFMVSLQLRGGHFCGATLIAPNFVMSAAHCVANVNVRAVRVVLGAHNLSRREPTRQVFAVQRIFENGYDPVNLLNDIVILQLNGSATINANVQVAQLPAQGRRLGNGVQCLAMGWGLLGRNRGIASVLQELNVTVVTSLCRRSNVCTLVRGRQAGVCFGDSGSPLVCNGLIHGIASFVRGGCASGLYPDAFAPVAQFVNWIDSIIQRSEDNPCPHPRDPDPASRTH
Experiment: HNE enzyme assay (fluorogenic peptide substrate MeOSuc-Ala-Ala-Pro-Val-AMC)
Type: biochemical
Settings: human leukocyte elastase, substrate 100 μM, 25° C., 30 minutes, at least two separate experiments; read-out: HNE inhibition (IC50 values)
Experimental: Compounds of this invention were tested for potency in a human neutrophil elastase (HNE) enzyme activity assay.
Assays were performed in 96-well plates in a total assay volume of 100 μl. The final concentration of elastase enzyme (human leukocyte elastase, Sigma E8140) was 0.0036 units/well […]. The peptide substrate (MeOSuc-Ala-Ala-Pro-Val-AMC, Calbiochem #324740) was used at a final concentration of 100 μM. The final concentration of DMSO was 1% in the assay buffer (0.05M Tris.HCl, 0.1M NaCl, 0.1M CaCl2, 0.0005% brij-35, pH 7.5). The enzymatic reaction was started by addition of the enzyme and incubated at 25° C. for 30 minutes. After incubation, the reaction was stopped by addition of soybean trypsin inhibitor (Sigma T9003) at a final concentration of 50 μg/well. Fluorescence was measured using a Molecular Devices fluorescence plate reader using 380 nm excitation and 460 nm emission wavelengths.
A dose response to each compound was performed, and the effect of the compound in each experiment was expressed as a percentage inhibition of the control enzyme fluorescence. Dose response curves were plotted and compound potency (IC50) was determined. Compounds were tested in at least two separate experiments.

Compound | IC50 [nM]
COC(=O)C1=C(C)N(c2cccc(C(F)(F)F)c2)c2n[nH]c(=O)n2C1c1ccc(C#N)cc1S(C)(=O)=O (centres unmarked) [Example 13, 5-(4-Cyano-2-methanesulfonyl-phenyl)-7-methyl-3-oxo-8-(3-trifluoromethyl-phenyl)-2,3,5,8-tetrahydro-[1,2,4]triazolo[4,3-a]pyrimidine-6-carboxylic acid methyl ester] | < 20
CC1=C(C(=O)OCCCN(C)C)C(c2ccc(C#N)cc2)n2c(n[nH]c2=O)N1c1cccc(C(F)(F)F)c1 (centres unmarked) [Example 11, 5-(4-Cyano-phenyl)-7-methyl-3-oxo-8-(3-trifluoromethyl-phenyl)-2,3,5,8-tetrahydro-[1,2,4]triazolo[4,3-a]pyrimidine-6-carboxylic acid 3-dimethylamino-propyl ester] | < 20
COC(=O)C1=C(C)N(c2cccc(C(F)(F)F)c2)c2nn(-c3ccc(S(C)(=O)=O)cc3)c(=O)n2C1c1ccc(C#N)cc1 (centres unmarked) [Example 15, 5-(4-Cyano-phenyl)-2-(4-methanesulfonyl-phenyl)-7-methyl-3-oxo-8-(3-trifluoromethyl-phenyl)-2,3,5,8-tetrahydro-[1,2,4]triazolo[4,3-a]pyrimidine-6-carboxylic acid methyl ester] | < 20
CC1=C(C#N)C(c2ccc(C#N)cc2)n2c(n[nH]c2=O)N1c1cccc(C(F)(F)F)c1 (centres unmarked) [Example 14, 5-(4-Cyano-phenyl)-7-methyl-3-oxo-8-(3-trifluoromethyl-phenyl)-2,3,5,8-tetrahydro-[1,2,4]triazolo[4,3-a]pyrimidine-6-carbonitrile] | < 20
COC(=O)C1=C(C)N(c2cccc(C(F)(F)F)c2)c2nn(CC(=O)N(C)CCCCN(C)C)c(=O)n2C1c1ccc(C#N)cc1 (centres unmarked) [Example 29, 5-(4-Cyano-phenyl)-2-{[(4-dimethylamino-butyl)-methyl-carbamoyl]-methyl}-7-methyl-3-oxo-8-(3-trifluoromethyl-phenyl)-2,3,5,8-tetrahydro-[1,2,4]triazolo[4,3-a]pyrimidine-6-carboxylic acid methyl ester] | < 20
COC(=O)C1=C(C)N(c2cccc(C(F)(F)F)c2)c2nn(CC(=O)N(C)CCN(C)C)c(=O)n2C1c1ccc(C#N)cc1 (centres unmarked) [Example 25, 5-(4-Cyano-phenyl)-2-{[(2-dimethylamino-ethyl)-methyl-carbamoyl]-methyl}-7-methyl-3-oxo-8-(3-trifluoromethyl-phenyl)-2,3,5,8-tetrahydro-[1,2,4]triazolo[4,3-a]pyrimidine-6-carboxylic acid methyl ester] | < 20
COC(=O)C1=C(C)N(c2cccc(C(F)(F)F)c2)c2nn(S(=O)(=O)c3ccc(CN(C)CCN(C)C)cc3)c(=O)n2C1c1ccc(C#N)cc1 (centres unmarked) [Example 19, 5-(4-Cyano-phenyl)-2-(4-{[(2-dimethylamino-ethyl)-methyl-amino]-methyl}-benzenesulfonyl)-7-methyl-3-oxo-8-(3-trifluoromethyl-phenyl)-2,3,5,8-tetrahydro-[1,2,4]triazolo[4,3-a]pyrimidine-6-carboxylic acid methyl ester] | 20 to 100
COC(=O)C1=C(C)N(c2cccc(C(F)(F)F)c2)c2nn(CC(=O)N(C)CCCCCN(C)C)c(=O)n2[C@@H]1c1ccc(C#N)cc1 [Example 33, (R)-5-(4-Cyano-phenyl)-2-{[(5-dimethylamino-pentyl)-methyl-carbamoyl]-methyl}-7-methyl-3-oxo-8-(3-trifluoromethyl-phenyl)-2,3,5,8-tetrahydro-[1,2,4]triazolo[4,3-a]pyrimidine-6-carboxylic acid methyl ester] | < 20
COC(=O)C1=C(C)N(c2cccc(C(F)(F)F)c2)c2nn(CCCN(C)C(C)=O)c(=O)n2C1c1ccc(C#N)cc1 (centres unmarked) [Example 35, 2-[3-(Acetyl-methyl-amino)-propyl]-5-(4-cyano-phenyl)-7-methyl-3-oxo-8-(3-trifluoromethylphenyl)-2,3,5,8-tetrahydro-[1,2,4]triazolo[4,3-a]pyrimidine-6-carboxylic acidmethyl ester] | < 20

Now from value to molecule:

IC50 [nM] | Compound
< 20 | COC(=O)C1=C(C)N(c2cccc(C(F)(F)F)c2)c2nn(CCCN(C)C)c(=O)n2C1c1ccc(C#N)cc1 (centres unmarked) [Example 3]
< 20 | COC(=O)C1=C(C)N(c2cccc(C(F)(F)F)c2)c2nn(Cc3ccc(S(C)(=O)=O)cc3)c(=O)n2[C@@H]1c1ccc(C#N)cc1 [Example 17, (R)-5-(4-Cyano-phenyl)-2-(4-methanesulfonyl-benzyl)-7-methyl-3-oxo-8-(3-trifluoromethyl-phenyl)-2,3,5,8-tetrahydro-[1,2,4]triazolo[4,3-a]pyrimidine-6-carboxylic acid methyl ester]
< 20 | C=CCn1nc2n(c1=O)C(c1ccc(C#N)cc1)C(C(=O)OC)=C(C)N2c1cccc(C(F)(F)F)c1 (centres unmarked) [Example 5, 2-Allyl-5-(4-cyanophenyl)-7-methyl-3-oxo-8-(3-trifluoromethyl-phenyl)-2,3,5,8-tetrahydro-[1,2,4]triazolo[4,3-a]pyrimidine-6-carboxylic acid methyl ester]
< 20 | COC(=O)C1=C(C)N(c2cccc(C(F)(F)F)c2)c2nn(C)c(=O)n2C1c1ccc(C#N)cc1 (centres unmarked) [Example 6, 5-(4-Cyanophenyl)-2,7-dimethyl-3-oxo-8-(3-trifluoromethylphenyl)-2,3,5,8-tetrahydro-[1,2,4]triazolo[4,3-a]pyrimidine-6-carboxylic acid methyl ester]
20 to 100 | COC(=O)C1=C(C)N(c2cccc(C(F)(F)F)c2)c2nn(Cc3ccccc3)c(=O)n2C1c1ccc(C#N)cc1 (centres unmarked) [Example 4, 2-Benzyl-5-(4-cyanophenyl)-7-methyl-3-oxo-8-(3-trifluoromethyl-phenyl)-2,3,5,8-tetrahydro-[1,2,4]triazolo[4,3-a]pyrimidine-6-carboxylic acid methyl ester]
< 20 | COC(=O)C1=C(C)N(c2cccc(C(F)(F)F)c2)c2nn(Cc3ccc(CN(C)C)cc3)c(=O)n2C1c1ccc(C#N)cc1 (centres unmarked) [Example 21, 5-(4-Cyano-phenyl)-2-(4-dimethylaminomethyl-benzyl)-7-methyl-3-oxo-8-(3-trifluoromethyl-phenyl)-2,3,5,8-tetrahydro-[1,2,4]triazolo[4,3-a]pyrimidine-6-carboxylic acid methyl ester]
< 20 | COC(=O)C1=C(C)N(c2cccc(C(F)(F)F)c2)c2nn(Cc3ccc(C[N+](C)(C)C)cc3)c(=O)n2C1c1ccc(C#N)cc1 (centres unmarked) [Example 22, {4-[5-(4-Cyano-phenyl)-6-methoxycarbonyl-7-methyl-3-oxo-8-(3-trifluoromethyl-phenyl)-5,8-dihydro-[1,2,4]triazolo[4,3-a]pyrimidin-2-ylmethyl]-benzyl}-trimethyl-ammonium bromide]
< 20 | COC(=O)C1=C(C)N(c2cccc(C(F)(F)F)c2)c2nn(CCc3ccc(S(C)(=O)=O)cc3)c(=O)n2[C@@H]1c1ccc(C#N)cc1 [Example 20, (R)-5-(4-Cyano-phenyl)-2-[2-(4-methanesulfonyl-phenyl)-ethyl]-7-methyl-3-oxo-8-(3-trifluoromethyl-phenyl)-2,3,5,8-tetrahydro-[1,2,4]triazolo[4,3-a]pyrimidine-6-carboxylic acid methyl ester]
